{"source": "paper PMC5958115", "about": "“A novel small molecule chaperone of rod opsin and its potential therapy for retinal degeneration” (Nature Communications, 2018)", "key": {"[1]": {"assay": "Metabolic stability in mouse liver microsomes", "assay_type": "in vitro ADME", "conditions": "5 µM, NADPH, 37 °C", "method": "(§1) A standard metabolic stability assay was performed in the presence of mouse or human liver microsomes. YC-001 (5 µM) was incubated with the microsomes (0.125 mg mL^−1) resuspended in 0.2 mL of PBS buffer, pH 7.4 composed of 10 mM Na2HPO4, 1.8 mM KH2PO4, 137 mM NaCl, and 2.7 mM KCl. The enzymatic reaction to produce oxidized metabolites was initiated by addition of NADPH (1 mM). Samples were incubated at 37 °C for up to 240 min. Incubation without the cofactor was conducted in parallel to assess NADPH-independent clearance. The reactions were stopped with 0.2 mL of methanol followed by 0.3 mL chloroform. Residual YC-001 was extracted by vigorous shaking. To facilitate phase separation, the samples were spun down for 2 min, 15,000×g. The chloroform fraction was collected, dried down, and the extracted organic compounds were redissolved in 0.2 mL of methanol. To quantify YC-001, the samples were injected onto an Eclipse XDB-C18 column (4.6 × 150 mm, 5 µm) (Agilent Technologies) equilibrated with solvent composed of 30% acetonitrile in water (v/v), and 0.1% formic acid. YC-001 was eluted in a gradient of acetonitrile in water (30–100%) developed within 15 min at a flow rate of 1 mL min^−1, detected at 350 nm, and quantified by correlating peak areas with known quantities of an original synthetic standard. […]"}, "[2]": {"assay": "Metabolic stability in human liver microsomes", "assay_type": "in vitro ADME", "conditions": "5 µM, NADPH, 37 °C", "method": "as §1"}, "[3]": {"biological_target": "T1, ovine COX-1 (Ovis aries, UniProt P05979)", "T1 construct": "purchased Abcam", "T1 sequence (P05979 25-600)": "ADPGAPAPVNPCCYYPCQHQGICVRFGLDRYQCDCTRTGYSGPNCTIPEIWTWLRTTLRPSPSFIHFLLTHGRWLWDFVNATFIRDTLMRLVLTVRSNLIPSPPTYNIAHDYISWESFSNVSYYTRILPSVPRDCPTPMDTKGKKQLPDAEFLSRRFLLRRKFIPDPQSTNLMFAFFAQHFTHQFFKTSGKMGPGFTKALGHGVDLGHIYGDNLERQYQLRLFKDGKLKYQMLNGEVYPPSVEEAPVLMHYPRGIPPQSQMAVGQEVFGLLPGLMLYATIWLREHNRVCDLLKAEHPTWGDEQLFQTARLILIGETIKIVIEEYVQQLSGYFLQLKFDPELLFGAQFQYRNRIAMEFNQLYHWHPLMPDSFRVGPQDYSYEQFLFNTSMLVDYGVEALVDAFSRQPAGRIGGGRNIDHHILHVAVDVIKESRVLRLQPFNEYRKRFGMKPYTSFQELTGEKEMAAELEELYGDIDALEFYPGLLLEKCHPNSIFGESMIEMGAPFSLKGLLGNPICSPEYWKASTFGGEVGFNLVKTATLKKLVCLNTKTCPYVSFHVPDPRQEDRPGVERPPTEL", "assay": "COX-1 activity assay (fluorometric)", "assay_type": "biochemical", "conditions": "up to 80 µM", "method": "The effect of the compound YC-001 on COX-1 activity was evaluated using the COX-1 Inhibitor Screening Kit (Abcam, Cambridge, MA, USA) according to the manufacture’s protocol. Briefly, the assay is based on the fluorometric detection of Prostaglandin G2, the intermediate product generated by the COX-1 enzyme. COX reaction mix included ovine COX-1, COX probe, and COX cofactor was prepared in a 96-well plate. YC-001 working solutions were dissolved in DMSO, and then mixed with COX Reaction Mix to the final concentrations (80, 40, 20, 10, 5, 2.5, 1.25, 0.625, 0.312, 0.156, 0.078 and 0.039 µM). Equivalent volume of DMSO was used as vehicle control and SC560 was used as a positive control. All controls and samples were measured in triplicate. Then arachidonic acid was added into each well to initiate all the reactions at the same time. The fluorescence was measured at Ex/Em = 535/587 nm in a kinetic mode for 15 min at 25 °C. Five time points were chosen in the linear range of the plot and the corresponding values for the fluorescence were used to calculate the slope of the linear regression equation. Relative COX-1 activity was calculated as Eq. 5: RelativeCOX-1Activity(%)=Slopeofsample/Slopeofenzymecontrol×100 ."}, "[4]": {"tested_on": "C57BL/6 mice", "assay": "Toxicity by daily i.p. injections, survival, behavior and body weight", "assay_type": "in vivo", "conditions": "200 and 100 mg kg^−1 bw daily i.p., day 14 to 38, vs DMSO", "method": "To estimate the long-term toxicity of YC-001 in mice, we administered YC-001 to C57BL/6 mice by daily i.p. injections from Day 14 to 38 after birth with one of two doses, either 100 mg kg^−1 or 200 mg kg^−1 bw. Equivalent volumes of DMSO were injected into control groups. Body weights of treated mice were measured daily. Each dosage group contained three mice including males and females."}, "[5]": {"set-up": "method as in PubChem database, CID 2377702", "conditions": "ref PubChem database, CID 2377702; cited from earlier work"}}}
{"smiles": "O=C1OCC(c2ccc(Cl)s2)=C1c1cccs1", "note": "[YC-001]", "values": [{"measurement": "initial clearance in liver microsomes", "setting": "[1]", "value": "even higher initial clearance compared to the fast clearance drug, verapamil"}, {"measurement": "initial clearance in liver microsomes", "setting": "[2]", "value": "even higher initial clearance compared to the fast clearance drug, verapamil"}, {"measurement": "COX-1 enzymatic activity", "setting": "[3]", "value": "did not see changes"}, {"measurement": "behavioral or bw growth changes", "setting": "[4]", "value": "no obvious behavioral or bw growth changes"}, {"measurement": "activity in 8 other bioassays", "setting": "[5]", "value": "no known activities"}]}
